In patent publication US10675254B2, “Sphingosine-1-phosphate receptor agonist iontophoretic devices and methods of using the same” (Teikoku Seiyaku Co., Ltd., priority 2013, dated 2020):
Counter-ions that a name gives are not always drawn.

Key:
[1] = In vitro iontophoretic delivery (active + passive) of Fingolimod HCl through epidermis of cadaver skin, Franz cell; type: in vitro ADME; settings: for Active + passive Maximum delivery efficiency: donor 0.5% Fingolimod HCl solution, 8 hr; for Active + passive Maximum delivery efficiency / Active + passive Average delivery efficiency: 0.425 mA, 1.77 cm2; for Active + passive Average delivery efficiency: Ag anode/AgCl cathode, 48 hr
[2] = orally administered fingolimod HCl; cited from earlier work
[3] = In vitro passive delivery of Fingolimod HCl through epidermis of cadaver skin, Franz cell (control); type: in vitro ADME; settings: for Passive Maximum delivery efficiency: donor 0.5% Fingolimod HCl solution, 8 hr; for Passive Maximum delivery efficiency / Passive Average delivery efficiency: 1.77 cm2; for Passive Average delivery efficiency: 48 hr
Source text: Passive delivery under the same experimental conditions was also concurrently investigated with the iontophoretic delivery and employed as a control. […] The maximum efficiency could be reached at a concentration of less than 0.25%. After 8 hr., some passive delivery of fingolimod HCl through the skin was also observed. This observation may have resulted from the imperfection of the skin and the experimental design. In this study, the presence of pores from the micro-sized damage of the epidermis during the preparation of the epidermal membrane and from the appendages (hair follicles, sweat ducts) might facilitate the contact between donor and receptor site and contribute to the passive delivery of fingolimod HCl solution into the receptor solution.

[4] = donor 0.25% fingolimod HCl solution, receptor 0.09% NaCl
[5] = donor 0.50% fingolimod HCl solution, receptor 0.09% NaCl
[6] = donor 0.75% fingolimod HCl solution, receptor 0.09% NaCl
[7] = donor 1% fingolimod HCl solution, receptor 0.09% NaCl
[8] = donor 2% fingolimod HCl solution, receptor 0.09% NaCl

SMILES: CCCCCCCCc1ccc(CCC(N)(CO)CO)cc1 [Fingolimod HCl, 2-amino-2-[2-(4-octylphenyl)ethyl]propane-1,3-diol]
- delivery efficiency (active+passive) ([1]; 0.25, 0.5, 0.75, 1 and 2% fingolimod HCl solutions, current 0.425 mA, area 1.77 cm^2): about 4.5 μg/cm2/hr
- Active + passive Maximum delivery efficiency ([1]; Ag/AgCl electrodes, receptor 0.9% NaCl): 5.0 ug/cm2/hr
- Active + passive Maximum delivery efficiency ([1]; Zn/AgCl electrodes, receptor 0.09% NaCl): 16.8 ug/cm2/hr
- Active + passive Maximum delivery efficiency ([1]; Zn/AgCl electrodes, receptor 0.9% NaCl): 5.8 ug/cm2/hr
- Active + passive Average delivery efficiency [1, 4]: 4.8 ug/cm2/hr
- Active + passive Average delivery efficiency [1, 5]: 5.0 ug/cm2/hr
- Active + passive Average delivery efficiency [1, 6]: 4.5 ug/cm2/hr
- Active + passive Average delivery efficiency [1, 7]: 4.5 ug/cm2/hr
- Active + passive Average delivery efficiency [1, 8]: 4.2 ug/cm2/hr
- peak to trough fluctuations, non-phosphorylated fingolimod [2]: ≤ 20%
- peak to trough fluctuations, phosphorylated (active) form of fingolimod [2]: ≤ 45%
- Passive Maximum delivery efficiency ([3]; receptor 0.09% NaCl): 0 ug/cm2/hr
- Passive Maximum delivery efficiency ([3]; receptor 0.9% NaCl): 0 ug/cm2/hr
- Passive Average delivery efficiency [3, 4]: 0.8 ug/cm2/hr
- Passive Average delivery efficiency [3, 5]: 0.9 ug/cm2/hr
- Passive Average delivery efficiency [3, 6]: 0.8 ug/cm2/hr
- Passive Average delivery efficiency [3, 7]: 0.7 ug/cm2/hr
- Passive Average delivery efficiency [3, 8]: 1.4 ug/cm2/hr
- passive delivery detected ([3]; over an 8 h period, 0.5% Fingolimod HCl solution): no Fingolimod HCl delivery was detected
